These results are taken from patent US20160152540A1, “NEW PROCESS FOR THE MAINTAINING OF A RATIO OF ISOMERS OF CAROTENOID COMPOUNDS” (DSM IP ASSETS B.V., priority 2013, published 2016).

The series in a line: Stability of the astaxanthin stereoisomer ratio (all-E form) in chloroform at 40° C., measured spectrophotometrically at 478 nm. The settings on record: tempered at 40° C., stored, sampled periodically.

Structures are written as SMILES.

Description: The solution was homogenized and the formulation was tempered at 40° C. The solution was stored and samples were taken periodically and the concentration of astaxanthin was measured spectrophotometrically at 478 nm.

As to `CC(=O)[O-].[K+]` [CH3COOK, potassium acetate], the “stabilisation of the all-E-form / ratio of stereoisomers of astaxanthin (FIG. 1 and FIG. 2)” value is “stabilises the all-E-form better than K2CO3”.
Consider `CC1=C(/C=C/C(C)=C/C=C/C(C)=C/C=C/C=C(C)/C=C/C=C(C)/C=C/C2=C(C)C(=O)[C@@H](O)CC2(C)C)C(C)(C)C[C@H](O)C1=O` [astaxanthin], for which the “stabilisation of the all-E-form / ratio of stereoisomers of astaxanthin (FIG. 1 and FIG. 2)” value is recorded as “the ratio is deteriorating usually”.
